Data reported in article PMC4795541, “A Rapid and Quantitative Flow Cytometry Method for the Analysis of Membrane Disruptive Antimicrobial Activity” (PLoS ONE, 2016).
≈ marks a conversion by molar mass, not a printed value. Marks after values point to notes of the source that are not given here. Where a SMILES comes first, the peptide text is derived from it. Where no end group is shown, it is not given here. [ ]: non-standard residue; d: D form. Phe(ol) = N[C@H](CO)Cc1ccccc1; Dab = NCC[C@H](N)C(=O)O; Dap = NC[C@H](N)C(=O)O; Aib = CC(C)(N)C(=O)O

Experiments:
[1] = system: A. baumannii strain 2208, ATCC 19606; details: A. baumannii strain 2208, ATCC 19606; 90 min incubation; average of 3 assays ± SD
Text: (§1) The bacterial strains; Fusobacterium nucleatum ATCC 25586, Streptococcus mutans Ingbritt, Staphylococcus aureus (MSSA) ATCC 29213; Staphylococcus aureus (MRSA) ATCC 43300; Enterococcus faecalis ATCC 29212; Enterobacter aerogenes ATCC 13048; Pseudomonas aeruginosa strain PAO1-LAC, ATCC 47085; Klebsiella pneumoniae ATCC 13883; Acinetobacter baumannii strain 2208, ATCC 19606; Escherichia coli ATCC 25922 lyophilised or glycerol stocks were obtained from the culture collection of the Oral Health Cooperative Research Centre, The Melbourne Dental School, University of Melbourne, Australia. These strains were selected for this study as they are widely used in antimicrobial studies and are considered to be important pathogens and major targets for antibiotic resistant studies. Bacteria were grown aerobically and maintained by passage at ambient temperature (E. coli, K. pneumoniae, A. baumannii and S. aureus strains) or at 37°C (P. aeruginosa, E. faecalis and E. aerogenes) on horse blood agar (10% v/v defibrinated horse blood, 4.4% w/v Oxoid Blood Agar Base No. 2). S. mutans and F. nucleatum were grown anaerobically (MK3 anaerobic workstation, Don Whitley Scientific Limited, England) and maintained by passage at 37°C on Todd Hewitt agar (3.6% w/v Oxoid Todd-Hewitt Broth, 1.5% w/v sucrose, 1.5% w/v BactoTM Agar, 0.8% w/v Oxoid Yeast Extract) or horse blood agar, respectively. For the antimicrobial peptide assays a 20 mL starter culture was produced by taking single colonies from blood or Todd Hewitt agar plates, respectively, to inoculate either: Luria Broth (LB; 1% w/v BactoTM Tryptone, 1% w/v NaCl, 0.5% w/v Oxoid Yeast Extract, pH 7.5, Thermo Scientific Pty, Ltd, Sydney, Australia) for bacteria; E. coli, K. pneumoniae, P. aeruginosa, A. baumannii, E. faecalis, E. aerogenes and S. aureus which were grown aerobically at 37°C, or Todd Hewitt broth (3.6% w/v Oxoid Todd-Hewitt Broth, 1.5% w/v sucrose, 0.8% w/v Oxoid Yeast 9 Extract) for S. mutans, or Brain Heart Infusion broth (BHI; 3.7% w/v Oxoid BHI, 0.05% w/v L-cysteine) for F. nucleatum which were both grown anaerobically at 37°C. After overnight incubation, 0.5–2.0 mL of the starter culture was used to inoculate the appropriate fresh broth (200 mL) and growth monitored at 650 nm using a spectrophotometer (model 275E; Perkin-Elmer, Sydney, Australia) with culture purity checked by microscopic examination and culture. Bacteria were harvested during late exponential growth phase and viability and bacteria/mL determined using a BacLight viability kit (Invitrogen, Sydney, Australia) and a Quanta SC-MPL flow cytometer (Beckman coulter Pty, Ltd, Sydney, Australia).
(§2) Antibacterial assays were undertaken to determinate the minimum inhibitory concentration (MIC), minimum bactericidal concentration (MBC) and minimum membrane disruptive concentration (MDC) of each of the antimicrobial peptides (AMP) and AMP analogues (S1 Table). For each bacterim a stock solution (2.5 × 10^6 cells/mL) in the respective media was made and an aliquot incubated with AMPs within 15 minutes from viable cell count and stock preparation. All AMPs were dissolved in DMSO and a 500 μM stock solution prepared by adding the respective media and serial dilutions (250–0.244 μM) of the AMP in media (100 μL/well) made just prior addition of bacteria. […] One hundred microliter aliquots of the bacterial stock solution (2.5 × 10^5 cells/well) were added to the AMP serial dilutions and incubated at 37°C for 90 min. Assay preparation and incubations were conducted in aerobic or anaerobic conditions dependent on the bacteria. Bacteria were also incubated in the absence of AMP to serve as a growth control for the assay. After the 90 minute incubation period the antimicrobial activity (MIC, MBC and MDC) was determined as follows;
(§3) For MIC the CLSI broth microdilution assay was followed as we have previously described.

E. aerogenes ATCC 13048 [2] = details: E. aerogenes ATCC 13048; 90 min incubation; average of 3 assays ± SD
Text: as §1, §2, §3

E. coli ATCC 25922 [3] = details: E. coli ATCC 25922; 90 min incubation; average of 3 assays ± SD
Text: as §1, §2, §3

E. faecalis ATCC 29212 [4] = details: E. faecalis ATCC 29212; 90 min incubation; average of 3 assays ± SD
Text: as §1, §2, §3

K. pneumoniae ATCC 13883 [5] = details: K. pneumoniae ATCC 13883; 90 min incubation; average of 3 assays ± SD
Text: as §1, §2, §3

[6] = system: P. aeruginosa strain PAO1-LAC, ATCC 47085; details: P. aeruginosa PAO1-LAC, ATCC 47085; 90 min incubation; average of 3 assays ± SD
Text: as §1, §2, §3

[7] = system: S. aureus (MRSA) ATCC 43300; details: S. aureus (MRSA) ATCC 43300; 90 min incubation; average of 3 assays ± SD
Text: as §1, §2, §3

[8] = system: S. aureus (MSSA) ATCC 29213; details: S. aureus (MSSA) ATCC 29213; 90 min incubation; average of 3 assays ± SD
Text: as §1, §2, §3

[9] = system: A. baumannii strain 2208, ATCC 19606; details: A. baumannii strain 2208, ATCC 19606; 90 min incubation; average of 3 assays ± SD; remark: listed apart in the source
Text: as §1, §2
(§4) For determination of MBC, the CLSI protocol was followed, with the modifications being that due to the rapid action of the AMPs the assay incubation time was shortened from 16–20 hours to 90 minutes.

E. aerogenes ATCC 13048 [10] = details: E. aerogenes ATCC 13048; 90 min incubation; average of 3 assays ± SD; remark: listed apart in the source
Text: as §1, §2, §4

E. coli ATCC 25922 [11] = details: E. coli ATCC 25922; 90 min incubation; average of 3 assays ± SD; remark: listed apart in the source
Text: as §1, §2, §4

E. faecalis ATCC 29212 [12] = details: E. faecalis ATCC 29212; 90 min incubation; average of 3 assays ± SD; remark: listed apart in the source
Text: as §1, §2, §4

K. pneumoniae ATCC 13883 [13] = details: K. pneumoniae ATCC 13883; 90 min incubation; average of 3 assays ± SD; remark: listed apart in the source
Text: as §1, §2, §4

[14] = system: P. aeruginosa strain PAO1-LAC, ATCC 47085; details: P. aeruginosa PAO1-LAC, ATCC 47085; 90 min incubation; average of 3 assays ± SD; remark: listed apart in the source
Text: as §1, §2, §4

[15] = system: S. aureus (MRSA) ATCC 43300; details: S. aureus (MRSA) ATCC 43300; 90 min incubation; average of 3 assays ± SD; remark: listed apart in the source
Text: as §1, §2, §4

[16] = system: S. aureus (MSSA) ATCC 29213; details: S. aureus (MSSA) ATCC 29213; 90 min incubation; average of 3 assays ± SD; remark: listed apart in the source
Text: as §1, §2, §4

S. mutans Ingbritt = assay: MDC, flow cytometry Syto9/PI membrane disruption assay; type: cell-based, Streptococcus mutans; details: 90 min peptide/bacteria incubation, average of 3 assays ± SD
Text: as §1
Antibacterial assays were undertaken to determinate the minimum inhibitory concentration (MIC), minimum bactericidal concentration (MBC) and minimum membrane disruptive concentration (MDC) of each of the antimicrobial peptides (AMP) and AMP analogues (S1 Table). For each bacterim a stock solution (2.5 × 10^6 cells/mL) in the respective media was made and an aliquot incubated with AMPs within 15 minutes from viable cell count and stock preparation. All AMPs were dissolved in DMSO and a 500 μM stock solution prepared by adding the respective media and serial dilutions (250–0.244 μM) of the AMP in media (100 μL/well) made just prior addition of bacteria. […] After the 90 minute incubation period the antimicrobial activity (MIC, MBC and MDC) was determined as follows;

## CC(=O)NC(C)(C)C(=O)N1CCC[C@H]1C(=O)NC(C)(C)C(=O)N[C@@H](C)C(=O)NC(C)(C)C(=O)N[C@@H](C)C(=O)N[C@@H](CCC(N)=O)C(=O)NC(C)(C)C(=O)N[C@H](C(=O)NC(C)(C)C(=O)NCC(=O)N[C@@H](CC(C)C)C(=O)NC(C)(C)C(=O)N1CCC[C@H]1C(=O)N[C@H](C(=O)NC(C)(C)C(=O)NC(C)(C)C(=O)N[C@@H](CCC(=O)O)C(=O)N[C@@H](CCC(N)=O)C(=O)N[C@H](CO)Cc1ccccc1)C(C)C)C(C)C [Alamethicin] (Ac-[Aib]P[Aib]A[Aib]AQ[Aib]V[Aib]GL[Aib]PV[Aib][Aib]EQ[Phe(ol)]; N-terminus assumed)
[1]
  MIC: 142.9±19.6^e μM
E. aerogenes ATCC 13048 [2]
  MIC: >250 µM
E. coli ATCC 25922 [3]
  MIC: >250 µM
E. faecalis ATCC 29212 [4]
  MIC: 30.1±9.6^e μM
K. pneumoniae ATCC 13883 [5]
  MIC: >250 µM
[6]
  MIC: >250 µM
[7]
  MIC: 50.8 ± 3.5 µM (≈ 99.8 µg/mL)
[8]
  MIC: 31.4 ± 7.4 µM (≈ 61.7 µg/mL)
[9]
  MBC: >250 µM
E. aerogenes ATCC 13048 [10]
  MBC: >250 µM
E. coli ATCC 25922 [11]
  MBC: >250 µM
E. faecalis ATCC 29212 [12]
  MBC: 48.1 ± 5.4 µM (≈ 94.5 µg/mL)
K. pneumoniae ATCC 13883 [13]
  MBC: >250 µM
[14]
  MBC: >250 µM
[15]
  MBC: 59.2 ± 1.7 µM (≈ 116 µg/mL)
[16]
  MBC: 27.9 ± 6.9 µM (≈ 54.8 µg/mL)
S. mutans Ingbritt
  MDC: 41.9 ± 8.3 µM

## CC[C@H](C)[C@H](NC(=O)CN)C(=O)NCC(=O)N[C@@H](CCN)C(=O)N[C@@H](Cc1ccccc1)C(=O)N[C@@H](CC(C)C)C(=O)N[C@@H](Cc1c[nH]cn1)C(=O)N[C@@H](CO)C(=O)N[C@@H](C)C(=O)N[C@@H](CCN)C(=O)N[C@@H](CCN)C(=O)N[C@@H](Cc1ccccc1)C(=O)NCC(=O)N[C@@H](CCN)C(=O)N[C@@H](C)C(=O)N[C@@H](Cc1ccccc1)C(=O)N[C@H](C(=O)NCC(=O)N[C@@H](CCC(=O)O)C(=O)N[C@H](C(=O)N[C@@H](CCSC)C(=O)N[C@@H](CC(N)=O)C(=O)N[C@@H](CO)C(N)=O)[C@@H](C)CC)C(C)C [Magainin-Dab] (H-GIG[Dab]FLHSA[Dab][Dab]FG[Dab]AFVGEIMNS-NH2; N-terminus assumed)
S. mutans Ingbritt
  MDC: >200^c μM

## CC[C@H](C)[C@H](NC(=O)CN)C(=O)NCC(=O)N[C@@H](CN)C(=O)N[C@@H](Cc1ccccc1)C(=O)N[C@@H](CC(C)C)C(=O)N[C@@H](Cc1c[nH]cn1)C(=O)N[C@@H](CO)C(=O)N[C@@H](C)C(=O)N[C@@H](CN)C(=O)N[C@@H](CN)C(=O)N[C@@H](Cc1ccccc1)C(=O)NCC(=O)N[C@@H](CN)C(=O)N[C@@H](C)C(=O)N[C@@H](Cc1ccccc1)C(=O)N[C@H](C(=O)NCC(=O)N[C@@H](CCC(=O)O)C(=O)N[C@H](C(=O)N[C@@H](CCSC)C(=O)N[C@@H](CC(N)=O)C(=O)N[C@@H](CO)C(N)=O)[C@@H](C)CC)C(C)C [Magainin-Dap] (H-GIG[Dap]FLHSA[Dap][Dap]FG[Dap]AFVGEIMNS-NH2; N-terminus assumed)
S. mutans Ingbritt
  MDC: >200^c μM

## GIGKFLHSAKKFGKAFVGEIMNS-NH2 [Magainin II]
[1]
  MIC: 15.1±1.53^e μM
E. aerogenes ATCC 13048 [2]
  MIC: >250 µM
E. coli ATCC 25922 [3]
  MIC: 29.5±3.7^e μM
E. faecalis ATCC 29212 [4]
  MIC: >250 µM
K. pneumoniae ATCC 13883 [5]
  MIC: 132.2 ± 28.5 µM
[6]
  MIC: 26.1±1.2^e μM
[7]
  MIC: >250 µM
[8]
  MIC: >250 µM
[9]
  MBC: 20.0 ± 1.0 µM
E. aerogenes ATCC 13048 [10]
  MBC: >250 µM
E. coli ATCC 25922 [11]
  MBC: 48.1 ± 12.4 µM
E. faecalis ATCC 29212 [12]
  MBC: >250 µM
K. pneumoniae ATCC 13883 [13]
  MBC: 142.3 ± 19.5 µM
[14]
  MBC: 56.3 ± 4.2 µM
[15]
  MBC: >250 µM
[16]
  MBC: >250 µM

## GIGRFLHSARRFGRAFVGEIMNS-NH2 [Magainin-Arg]
S. mutans Ingbritt
  MDC: 42.5±5.7^c μM

## GIGXFLHSAXXFGXAFVGEIMNS-CONH2 [Magainin-Orn, magainin II analogue, all lysine residues substituted with ornithine]
S. mutans Ingbritt
  MDC: >200^c μM
